The NIST ThermoML archive (doi:10.1016/j.fluid.2010.07.026)
Where “and” joins values, the source holds several entries; their conditions need not be identical. Equal values may be shown once.

How the values were obtained:
[1] = wn = mass fraction of the nth substance listed; details: Capillary rise
[2] = Capillary rise

COC [dimethyl ether] + CCC
[1]
Details	surface tension liquid-gas
243.4 K, w1 = 0.4975	16 mN/m
243.46 K, w1 = 0.6949	17.3 mN/m and 17.2 mN/m
243.56 K, w1 = 0.3007	15.2 mN/m
248.19 K, w1 = 0.4975	15.4 mN/m
248.27 K, w1 = 0.3007	14.5 mN/m
248.43 K, w1 = 0.6949	16.7 mN/m and 16.6 mN/m
253.08 K, w1 = 0.3007	13.9 mN/m
253.09 K, w1 = 0.4975	14.7 mN/m
253.23 K, w1 = 0.6949	15.9 mN/m and 15.8 mN/m
258.34 K, w1 = 0.6949	15.2 mN/m
258.38 K, w1 = 0.4975	13.9 mN/m and 14 mN/m
258.42 K, w1 = 0.3007	13.1 mN/m
263.11 K, w1 = 0.4975	13.4 mN/m
263.16 K, w1 = 0.6949	14.4 mN/m
263.33 K, w1 = 0.3007	12.4 mN/m
268.05 K, w1 = 0.3007	11.8 mN/m
268.16 K, w1 = 0.4975	12.7 mN/m
268.16 K, w1 = 0.6949	13.7 mN/m
273.14 K, w1 = 0.3007	11.1 mN/m
273.15 K, w1 = 0.6949	12.9 mN/m
273.16 K, w1 = 0.4975	11.9 mN/m and 12 mN/m
278.13 K, w1 = 0.3007	10.5 mN/m
278.15 K, w1 = 0.4975	11.3 mN/m
278.16 K, w1 = 0.6949	12.3 mN/m
283.13 K, w1 = 0.3007	9.8 mN/m
283.16 K, w1 = 0.4975	10.6 mN/m
283.16 K, w1 = 0.6949	11.6 mN/m
288.12 K, w1 = 0.3007	9.1 mN/m
288.15 K, w1 = 0.4975	10 mN/m
288.15 K, w1 = 0.6949	11 mN/m and 11.1 mN/m
293.11 K, w1 = 0.3007	8.4 mN/m and 8.5 mN/m
293.13 K, w1 = 0.4975	9.3 mN/m
293.17 K, w1 = 0.6949	10.4 mN/m
298.08 K, w1 = 0.3007	7.8 mN/m and 7.9 mN/m
298.09 K, w1 = 0.4975	8.7 mN/m
298.1 K, w1 = 0.6949	9.6 mN/m
303.12 K, w1 = 0.4975	8 mN/m
303.15 K, w1 = 0.3007	7 mN/m and 7.1 mN/m
303.17 K, w1 = 0.6949	9.1 mN/m
308.08 K, w1 = 0.4975	7.4 mN/m
308.11 K, w1 = 0.3007	6.5 mN/m
308.11 K, w1 = 0.6949	8.5 mN/m and 8.4 mN/m
313.17 K, w1 = 0.3007	5.9 mN/m
313.17 K, w1 = 0.4975	6.6 mN/m and 6.7 mN/m
313.18 K, w1 = 0.6949	7.7 mN/m
318.13 K, w1 = 0.3007	5.3 mN/m
318.13 K, w1 = 0.4975	6.1 mN/m
318.16 K, w1 = 0.6949	7.1 mN/m
323.17 K, w1 = 0.3007	4.8 mN/m
323.17 K, w1 = 0.4975	5.5 mN/m
323.17 K, w1 = 0.6949	6.5 mN/m and 6.4 mN/m
328.12 K, w1 = 0.3007	4.2 mN/m
328.13 K, w1 = 0.4975	4.9 mN/m and 5 mN/m
328.14 K, w1 = 0.6949	5.9 mN/m and 5.8 mN/m
333.12 K, w1 = 0.3007	3.7 mN/m
333.13 K, w1 = 0.6949	5.3 mN/m and 5.2 mN/m
333.14 K, w1 = 0.4975	4.3 mN/m

COC [dimethyl ether]
[2]
Details	surface tension liquid-gas [mN/m]
278.16 K	14.7
283.21 K	13.9
288.17 K	13.1
293.15 K	12.6
298.1 K	11.8
303.13 K	11

CCC [propane]
[2]
Details	surface tension liquid-gas [mN/m]
278.18 K	9.5
283.18 K	8.9
288.19 K	8.3
293.18 K	7.7
298.1 K	7.1
303.18 K	6.4
